These results are taken from patent publication US7932277B2, “Peptide inhibitors of hepatitis C virus replication” (InterMune, Inc., priority 2007, dated 2011).

For orientation: EC50 means the midpoint of the concentration-response curve. For orientation: IC50 means the concentration at which inhibition is half-maximal.

The subject of test [1] is HCV sub-genomic replicon (1377/NS3-3') in HuH-7 hepatoma cells (GS4.3). Nature of the test: Quantitation by ELISA of NPTII in the HCV sub-genomic replicon, GS4.3. The class given is cell-based, hepatitis C virus (HCV). Particulars: Hepatitis C virus, Huh-7; GS4.3 cells, 72 h incubation, NPTII ELISA; read-out: Replicon EC50. The method, then:
The HCV sub-genomic replicon (1377/NS3-3′, accession No. AJ242652), stably maintained in HuH-7 hepatoma cells, was created by Lohmann et al. Science 285: 110-113 (1999). The replicon-containing cell culture, designated GS4.3, was obtained from Dr. Christoph Seeger of the Institute for Cancer Research, Fox Chase Cancer Center, Philadelphia, Pa.
GS4.3 cells were maintained at 37° C., 5% CO2, in DMEM (Gibco 11965-092) supplemented with L-glutamine 200 mM (100×) (Gibco25030-081), non-essential amino acids (NEAA) (Biowhittaker 13-114E), heat-inactivated (HI) Fetal Bovine Serum (FBS) (Hyclone SH3007.03) and 750 μg/mL geneticin (G418)(Gibco 10131-035). Cells were sub-divided 1:3 or 4 every 2-3 days.
24 h prior to the assay, GS4.3 cells were collected, counted, and plated in 96-well plates (Costar 3585) at 7500 cells/well in 100 μL standard maintenance medium (above) and incubated in the conditions above. To initiate the assay, culture medium was removed, cells were washed once with PBS (Gibco 10010-023) and 90 μl Assay Medium (DMEM, L-glutamine, NEAA, 10% HI FBS, no G418) was added. Inhibitors were made as a 10× stock in Assay Medium, (3-fold dilutions from 10 μM to 56 pM final concentration, final DMSO concentration 1%), 10 μL were added to duplicate wells, plates were rocked to mix, and incubated as above for 72 h.
An NPTII Elisa kit was obtained from AGDIA, Inc. (Compound direct ELISA test system for Neomycin Phosphotransferase II, PSP 73000/4800). Manufacturer's instructions were followed, with some modifications. 10×PEB-1 lysis buffer was made up to include 500 μM PMSF (Sigma P7626, 50 mM stock in isopropanol). After 72 h incubation, cells were washed once with PBS and 150 μL PEB-1 with PMSF was added per well. Plates were agitated vigorously for 15 minutes, room temperature, then frozen at −70° C. Plates were thawed, lysates were mixed thoroughly, and 100 μl were applied to an NPTII Elisa plate. A standard curve was made. Lysate from DMSO-treated control cells was pooled, serially diluted with PEB-1 with PMSF, and applied to duplicate wells of the ELISA plate, in a range of initial lysate amount of 150 μL-2.5 μL. In addition, 100 μL buffer alone was applied in duplicate as a blank. Plates were sealed and gently agitated at room temperature for 2 h. Following capture incubation, the plates were washed 5×300 μL with PBS-T (0.5% Tween-20, PBS-T was supplied in the ELISA kit). For detection, a 1× dilution of enzyme conjugate diluent MRS-2 (5×) was made in PBS-T, into which 1:100 dilutions of enzyme conjugates A and B were added, as per instructions. Plates were resealed, and incubated with agitation, covered, room temperature, for 2 h. The washing was then repeated and 100 μL of room temperature TMB substrate was added. After approximately 30 minutes incubation (room temperature, agitation, covered), the reaction was stopped with 50 μL 3M sulfuric acid. Plates were read at 450 nm on a Molecular Devices Versamax plate reader.
Inhibitor effect was expressed as a percentage of DMSO-treated control signal, and inhibition curves were calculated using a 4-parameter equation: y=A+((B−A)/(1+((C/x)^D))), where C is half-maximal activity or EC50.
In general terms: In an ELISA, binding on a coated surface is turned into a signal by an enzyme label.

The target in test [2] is T1, NS3/NS4A-2 (full-length HCV NS3 protease complexed with NS4A-2) (Hepatitis C virus genotype 1a, UniProt P27958).
T1 construct: Recombinant E. coli or Baculovirus full-length NS3; host or cells: E. coli or baculovirus (insect cells)
T1 sequence (P27958 1027-1657, one chain of several): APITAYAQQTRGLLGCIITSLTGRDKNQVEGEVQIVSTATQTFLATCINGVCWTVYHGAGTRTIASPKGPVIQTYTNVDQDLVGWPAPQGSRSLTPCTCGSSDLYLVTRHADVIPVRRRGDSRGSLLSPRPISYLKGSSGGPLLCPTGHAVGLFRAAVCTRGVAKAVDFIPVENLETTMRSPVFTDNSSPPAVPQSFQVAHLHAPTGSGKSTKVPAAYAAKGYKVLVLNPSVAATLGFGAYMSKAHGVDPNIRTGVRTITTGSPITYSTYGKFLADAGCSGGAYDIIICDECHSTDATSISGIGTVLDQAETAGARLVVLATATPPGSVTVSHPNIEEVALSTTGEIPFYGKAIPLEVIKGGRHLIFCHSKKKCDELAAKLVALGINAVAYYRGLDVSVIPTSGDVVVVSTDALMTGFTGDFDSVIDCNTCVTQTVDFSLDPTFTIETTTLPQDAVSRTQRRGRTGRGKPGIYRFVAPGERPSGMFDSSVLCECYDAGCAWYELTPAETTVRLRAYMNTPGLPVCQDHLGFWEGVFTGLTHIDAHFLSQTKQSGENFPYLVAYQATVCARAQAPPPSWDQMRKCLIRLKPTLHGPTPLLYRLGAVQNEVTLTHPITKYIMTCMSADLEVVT
The experiment in a line: NS3 inhibition assay (NS3-NS4 protease assay). The settings on record: recombinant full-length NS3/NS4A-2, RETS1 substrate, kinetic fluorescence read; read-out: NS3-NS4 IC50. It counts as biochemical. The method, then: Recombinant E. coli or Baculovirus full-length NS3 was diluted to 3.33 μM with assay buffer and transferred material to an eppendorf tube and place in water bath in 4° C. refrigerator. The appropriate amount of NS4A-2 to 8.3 mM in assay buffer was added to equal the volume of NS3 in step 2.1.1 (conversion factor −3.8 mg/272 μL assay buffer). The material was transferred to an eppendorf tube and place in water bath in 4° C. refrigerator.
After equilibration to 4° C., equal volumes of NS3 and NS4A-2 solutions were combined in an eppendorf tube, mix gently with a manual pipettor, and incubate mixture for 15 minutes in the 4° C. water bath. Final concentrations in the mixture are 1.67 μM NS3, 4.15 mM NS4A-2 (2485-fold molar excess NS4A-2).
After 15 minutes at 4° C., the NS3/NS4A-2 eppendorf tube was removed and place it in a room temperature water bath for 10 minutes. NS3/NS4A-2 was aliquoted at appropriate volumes and store at −80° C. (E. coli NS3 run at 2 nM in assay, aliquot at 25 μL. BV NS3 run at 3 nM in assay, aliquot at 30 μL).
Sample compounds were dissolved to 10 mM in DMSO then diluted to 2.5 mM (1:4) in DMSO. Typically, compounds were added to an assay plate at 2.5 mM concentration, yielding upon dilution a starting concentration of 50 microM in the assay inhibition curve. Compounds were serial diluted in assay buffer to provide test solutions at lower concentrations.
The E. coli. NS3/NS4A-2 was diluted to 4 nM NS3 (1:417.5 of 1.67 μM stock−18 μL1.67 μM stock+7497 μL assay buffer). The BV NS3/NS4A-2 was diluted to 6 nM NS3 (1:278.3 of 1.67 μM stock−24 μL1.67 μM stock+6655 μL assay buffer). Using the manual multichannel pipettor, careful not to introduce bubbles into the plate, add 50 μL assay buffer to wells A01-H01 of a black Costar 96-well polypropylene storage plate.
Using the manual multichannel pipettor, careful not to introduce bubbles into the plate, add 50 μL of diluted NS3/NS4A-2 from step 2.2.6 to wells A02-H12 of plate in step 2.2.7. Using the manual multichannel pipettor, careful not to introduce bubbles into the plate, transfer 25 μL of the wells in drug dilution plate in step 2.2.5 to corresponding wells in assay plate in step 2.2.8. Change tips on multichannel pipettor for each row of compounds transferred. Using the manual multichannel pipettor, careful not to introduce bubbles into the plate, mix the wells from the assay plate in step 2.2.9 by aspirating and dispensing 35 μL of the 75 μL in each well five times. Change tips on multichannel pipettor for each row of wells mixed. Cover plate with a polystyrene plate lid and pre-incubate the plate from step 2.2.10 containing NS3 protease and sample compounds 10 minutes at room temperature. While plate from step 2.2.11 is pre-incubating, dilute RETS1 substrate in a 15 mL polypropylene centrifuge tube. Dilute RETS1 substrate to 8 μM (1:80.75 of 646 μM stock−65 μL 646 μM stock+5184 μL assay buffer).
After the plate in step is done pre-incubating, and using the manual multichannel, add 25 μL of substrate to all wells on the plate. Quickly mix the plate as in step 2.2.10, mixing 65 μL of the 100 μL in the wells.
Read the plate in kinetic mode on the Molecular Devices SpectraMax Gemini XS plate reader. Reader settings: Read time: 30 minutes, Interval: 36 seconds, Reads: 51, Excitation λ: 335 nm, Emission λ: 495 nm, cutoff: 475 nm, Automix: off, Calibrate: once, PMT: high, Reads/well: 6, Vmax pts: 21 or 28/51 depending on length of linearity of reaction
IC50s are determined using a four parameter curve fit equation, and converted to Ki's using the following Km's: • Full-length E. coli NS3−2.03 μM • Full-length BV NS3−1.74 μM • where Ki=IC50/(1+[S]/Km)) • Quantitation by ELISA of the Selectable Marker Protein, Neomycin Phosphotransferase II (NPTII) in the HCV Sub-Genomic Replicon, GS4.3

Turning to `C=C[C@@H]1C[C@]1(NC(=O)[C@@H]1C[C@@H](OC(=O)N2Cc3cccc(F)c3C2)CN1C(=O)[C@@H](Nc1ccc(F)nc1)C(C)C)C(=O)NS(=O)(=O)C1CC1` [Compound 39, [(3R,5S)-5-((1R,2S)-1-(cyclopropylsulfonylcarbamoyl)-2-vinylcyclopropylcarbamoyl)-1-((S)-2-(6-fluoropyridin-3-ylamino)-3-methylbutanoyl)pyrrolidin-3-yl]4-fluoroisoindoline-2-carboxylate], the EC50 in test [1] lay within 100 to 1000 nM. In test [2], the IC50 was under 100 nM.
On to `CC[C@@H]1C[C@]1(NC(=O)[C@@H]1C[C@@H](OC(=O)N2Cc3cccc(F)c3C2)CN1C(=O)[C@@H](Nc1cccc(Cl)c1)C(C)C)C(=O)NS(=O)(=O)C1CC1` [Compound 50, [(3R,5S)-1-((S)-2-(3-chlorophenylamino)-3-methylbutanoyl)-5-((1R,2R)-1-(cyclopropylsulfonylcarbamoyl)-2-ethylcyclopropylcarbamoyl)pyrrolidin-3-yl]4-fluoroisoindoline-2-carboxylate], for which the EC50 in test [1] is under 100 nM. Moreover, in test [2], the 50% inhibitory concentration (IC50) is under 100 nM.
Turning to `CC[C@@H]1C[C@]1(NC(=O)[C@@H]1C[C@@H](Oc2nc3ccccc3s2)CN1C(=O)[C@@H](Nc1cccc(C(F)(F)F)c1)C(C)(C)C)C(=O)NS(=O)(=O)C1CC1` [Compound 69], the EC50 in test [1] is under 100 nM. The IC50 in test [2] is under 100 nM.
Consider `C=C[C@@H]1C[C@]1(NC(=O)[C@@H]1C[C@@H](OC(=O)N2Cc3cccc(F)c3C2)CN1C(=O)[C@@H](Nc1ccc(F)cc1)C(C)(C)C)C(=O)NS(=O)(=O)C1CC1` [Compound 37, [(3R,5S)-5-((1R,2S)-1-(cyclopropylsulfonylcarbamoyl)-2-vinylcyclopropylcarbamoyl)-1-((S)-2-(4-fluorophenylamino)-3,3-methylbutanoyl)pyrrolidin-3-yl]4-fluoroisoindoline-2-carboxylate], for which, in test [1], the concentration for a half-maximal effect (EC50) is under 100 nM. The IC50 in test [2] was under 100 nM.
As to `CC(C)[C@H](Nc1cccc(C(C)(C)C)c1)C(=O)N1C[C@H](OC(=O)N2Cc3cccc(Cl)c3C2)C[C@H]1C(=O)N[C@]1(C(=O)NS(=O)(=O)C2CC2)C[C@H]1C1CC1` [Compound 59, [(3R,5S)-1-((S)-2-(3-tert-butylphenylamino)-3-methylbutanoyl)-5-((1R,2S)-1-(cyclopropylsulfonylcarbamoyl)-2-cyclopropylcyclopropylcarbamoyl)pyrrolidin-3-yl]4-chloroisoindoline-2-carboxylate], in test [1], the EC50 was under 100 nM. The IC50 in test [2] was under 100 nM.
In the case of `C=C[C@@H]1C[C@]1(NC(=O)[C@H]1Cc2cc(Oc3cccc(Cl)c3)ccc2CN1C(=O)[C@@H](Nc1ccc(F)cc1)C(C)(C)C)C(=O)NS(=O)(=O)C1CC1` [Compound 12, (R)-6-(3-chlorophenoxy)-N-((1R,2S)-1-(cyclopropylsulfonylcarbamoyl)-2-vinylcyclopropyl)-2-((S)-2-(4-fluorophenylamino)-3,3-dimethylbutanoyl)-1,2,3,4-tetrahydroisoquinoline-3-carboxamide], the EC50 in test [1] fell in the range of 10000 to 50000 nM. Further, the IC50 in test [2] lay within 100 to 1000 nM.
Regarding `CC[C@@H]1C[C@]1(NC(=O)[C@@H]1C[C@@H](OC(=O)N2Cc3cccc(Cl)c3C2)CN1C(=O)[C@@H](Nc1cccc(C(C)(C)C#N)c1)C(C)C)C(=O)NS(=O)(=O)C1CC1` [Compound 54, [(3R,5S)-1-((S)-2-(3-(2-cyanopropan-2-yl)phenylamino)-3-methylbutanoyl)-5-((1R,2R)-1-(cyclopropylsulfonylcarbamoyl)-2-ethylcyclopropylcarbamoyl)-pyrrolidin-3-yl]4-chloroisoindoline-2-carboxylate], the EC50 in test [1] was under 100 nM. The IC50 in test [2] was under 100 nM.
On to `CC[C@@H]1C[C@]1(NC(=O)[C@@H]1C[C@@H](OC(=O)N2Cc3cccc(Cl)c3C2)CN1C(=O)[C@@H](Nc1cc(F)cc(C(F)(F)F)c1)C(C)(C)C)C(=O)NS(=O)(=O)C1CC1` [Compound 73, (3R,5S)-5-((1R,2R)-1-(cyclopropylsulfonylcarbamoyl)-2-ethylcyclopropylcarbamoyl)-1-((S)-2-(3-fluoro-5-(trifluoromethyl)phenylamino)-3,3-dimethylbutanoyl)pyrrolidin-3-yl 4-chloroisoindoline-2-carboxylate], for which, in test [2], the IC50 was under 100 nM.
With `CC[C@@H]1C[C@]1(NC(=O)[C@@H]1C[C@@H](OC(=O)N2Cc3cccc(Cl)c3C2)CN1C(=O)[C@@H](Nc1cc(F)cc(C(F)(F)F)c1)C(C)(C)C)C(=O)NS(=O)(=O)C1CC1` [Compound 77], in test [1], the EC50 was under 100 nM.
Take “[(3R,5S)-5-(((1R,2R)-1-(Cyclopropylsulfonylcarbamoyl)-2-ethylcyclopropyl)carbamoyl)-1-((S)-2-(5-isopropylthiazol-2-ylamino)-3,3-dimethylbutanoyl)pyrrolidin-3-yl]4-chloroisoindoline-2-carboxylate [Compound 65]”: in test [2], the IC50 was under 100 nM.
